In one assay the target is T1, rTRPV4 (Rattus norvegicus, UniProt Q9ERZ8).
T1 construct: expressed in transfected cells; host or cells: HEK-293
Briefly: TRPV4 calcium influx assay (Fluo-4) in HEK-293 cells overexpressing rat recombinant TRPV4. In kind it is cell-based. As to conditions: for IC50: against the effect of GSK1016790A (10 nM) after a 5-min pre-incubation, read-out: IC50 inh. TRPV4; for Efficacy %: as percent of the effect of ionomycin (4 µM), HEK-293 cells overexpressing rTRPV4, means ± SEM, n >= 3. An excerpt:
The interaction properties of all homodrimane-derived compounds 1–16, 18–19, and 22–25 with either TRPV type-4 or type-1 were studied in human embryonic kidney (HEK)-293 cells overexpressing either the rat recombinant type-4 (rTRPV4), which shares with the human orthologue ~95% of sequence identity, and the human recombinant type-1 (hTRPV1) channel, evaluating the changes in intracellular calcium levels. […] Cell fluorescence before and after the addition of various concentrations of test compounds was measured normalizing the effects against the response to ionomycin (4 μM). […] Dose-response curve fitting (sigmoidal dose-response variable slope) and parameter estimation were performed with Graph-Pad Prism8® (GraphPad Software Inc., San Diego, CA, USA). All determinations were performed at least in triplicate.

For another assay, the target named is T2, hTRPV1 (Homo sapiens, UniProt Q8NER1).
T2 construct: expressed in transfected cells; host or cells: HEK-293
T2 sequence (Q8NER1 whole entry): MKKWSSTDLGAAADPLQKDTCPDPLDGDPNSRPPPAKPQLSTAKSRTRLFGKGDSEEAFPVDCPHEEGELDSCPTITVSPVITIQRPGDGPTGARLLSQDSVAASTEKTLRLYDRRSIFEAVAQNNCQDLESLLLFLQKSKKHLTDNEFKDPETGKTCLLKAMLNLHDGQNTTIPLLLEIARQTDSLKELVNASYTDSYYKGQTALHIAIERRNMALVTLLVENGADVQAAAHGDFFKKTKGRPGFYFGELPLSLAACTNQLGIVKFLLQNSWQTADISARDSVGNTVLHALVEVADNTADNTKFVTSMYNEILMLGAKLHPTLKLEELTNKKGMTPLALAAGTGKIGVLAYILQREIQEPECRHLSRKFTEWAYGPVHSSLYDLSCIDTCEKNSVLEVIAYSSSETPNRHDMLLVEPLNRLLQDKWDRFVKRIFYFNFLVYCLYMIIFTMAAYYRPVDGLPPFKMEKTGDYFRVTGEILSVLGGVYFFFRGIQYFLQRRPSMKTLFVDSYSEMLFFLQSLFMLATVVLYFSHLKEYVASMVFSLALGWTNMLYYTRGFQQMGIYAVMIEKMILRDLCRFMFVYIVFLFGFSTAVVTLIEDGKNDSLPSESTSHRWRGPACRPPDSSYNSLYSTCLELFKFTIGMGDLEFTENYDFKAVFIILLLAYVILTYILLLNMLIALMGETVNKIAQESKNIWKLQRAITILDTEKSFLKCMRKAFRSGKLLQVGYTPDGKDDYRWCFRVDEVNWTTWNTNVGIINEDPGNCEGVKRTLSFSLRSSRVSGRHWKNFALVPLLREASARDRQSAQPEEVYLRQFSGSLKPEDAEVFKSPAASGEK
Description: TRPV1 calcium influx assay (Fluo-4) in HEK-293 cells overexpressing human recombinant TRPV1. It counts as cell-based. To be noted: for IC50: read-out: IC50 inh TRPV1; for Efficacy %: as percent of the effect of ionomycin (4 µM), HEK-293 cells overexpressing hTRPV1, means ± SEM, N >= 3.

Where [1] appears, read: activation, half-maximal increase in [Ca2+]i, NA = not active (efficacy lower than 10%), read-out: Potency EC50.

As usually defined, the IC50 is the point on the concentration scale where inhibition reaches its midpoint. By EC50 is commonly meant the concentration that produces a half-maximal response.

The structures appear in SMILES notation. Entries after “also recorded” stand apart in the source; their conditions may differ. Read-outs that look alike come from different tables or passages of the source. Some results are limits rather than exact numbers.

T1 sequence (Q9ERZ8 whole entry): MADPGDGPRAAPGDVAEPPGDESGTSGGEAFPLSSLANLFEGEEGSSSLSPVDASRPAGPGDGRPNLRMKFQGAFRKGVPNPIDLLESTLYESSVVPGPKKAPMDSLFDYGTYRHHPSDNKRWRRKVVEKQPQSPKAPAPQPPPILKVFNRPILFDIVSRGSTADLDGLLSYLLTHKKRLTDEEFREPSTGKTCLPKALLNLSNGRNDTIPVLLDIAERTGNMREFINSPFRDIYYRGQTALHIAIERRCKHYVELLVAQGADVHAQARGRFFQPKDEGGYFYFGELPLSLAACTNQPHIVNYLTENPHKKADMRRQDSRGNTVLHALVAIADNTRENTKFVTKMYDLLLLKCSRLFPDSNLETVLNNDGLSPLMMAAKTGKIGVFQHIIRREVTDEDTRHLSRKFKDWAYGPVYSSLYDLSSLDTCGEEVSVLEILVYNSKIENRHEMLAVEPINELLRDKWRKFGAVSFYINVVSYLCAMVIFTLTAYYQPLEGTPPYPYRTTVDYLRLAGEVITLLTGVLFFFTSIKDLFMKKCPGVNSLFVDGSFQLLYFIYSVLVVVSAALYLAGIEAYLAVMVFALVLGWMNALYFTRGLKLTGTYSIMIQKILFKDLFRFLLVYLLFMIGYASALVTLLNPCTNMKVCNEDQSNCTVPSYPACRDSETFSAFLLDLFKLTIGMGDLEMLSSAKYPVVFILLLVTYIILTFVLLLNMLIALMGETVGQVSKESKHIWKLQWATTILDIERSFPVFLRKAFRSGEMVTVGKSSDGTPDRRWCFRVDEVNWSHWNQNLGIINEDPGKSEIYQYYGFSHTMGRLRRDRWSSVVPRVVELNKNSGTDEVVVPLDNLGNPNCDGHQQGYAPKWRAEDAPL

As for `CC1(C)CCC[C@]2(C)[C@@H](CCOC(=O)CCCc3cccs3)[C@](C)(O)CC[C@@H]12` [Compound 24, 2-((1R,2R,4aS,8aS)-2-hydroxy-2,5,5,8a-tetramethyldecahydronaphthalen-1-yl)ethyl 4-(thiophen-2-yl)butanoate], the IC50 at rTRPV4 and at hTRPV1 was > 100 µM each time. The Efficacy % on rTRPV4 was <10%.

On to `CC1(C)CCC[C@]2(C)[C@@H](CC(=O)NCCc3ccc(F)cc3)[C@](C)(O)CC[C@@H]12` [Compound 12, N-(4-fluorophenethyl)-2-((1R,2R,4aS,8aS)-2-hydroxy-2,5,5,8a-tetramethyldecahydronaphthalen-1-yl)acetamide], for which, on rTRPV4, the IC50 stood at 11.4 ± 0.1 µM and the Efficacy % is <10%. Besides, on hTRPV1, the IC50 was > 100 µM.

For `CC1(C)CCCC2(C)C1CCC(C)(O)C2CCO` (centres unmarked) [Compound 21], at rTRPV4, the “activity on rTRPV4 in words” value was “unable to modulate either channel; also recorded: inactive”, the IC50 is > 100 µM and the Efficacy % is recorded as <10%. Also, on hTRPV1, the “activity on hTRPV1 in words” value was “unable to modulate either channel” and the 50% inhibitory concentration (IC50) was > 100 µM.

In the case of `CC1(C)CCC[C@]2(C)[C@@H](CC(=O)NCCCn3ccnc3)[C@](C)(O)CC[C@@H]12` [Compound 16, N-(3-(1H-imidazol-1-yl)propyl)-2-((1R,2R,4aS,8aS)-2-hydroxy-2,5,5,8a-tetramethyldecahydronaphthalen-1-yl)acetamide], on rTRPV4, the “activity on rTRPV4 in words” value is reported as “complete loss of activity”, the IC50 is > 100 µM and the Efficacy % is <10%. Moreover, at hTRPV1, the IC50 is > 100 µM.

For `COC(=O)CC1C(C)(O)CCC2C(C)(C)CCCC21C` (centres unmarked) [Compound 20], at rTRPV4, the “activity on rTRPV4 in words” value was “inactive”, the IC50 was > 100 µM and the Efficacy % is listed as <10%. Moreover, at hTRPV1, the “activity on hTRPV1 in words” value is “inactive” and the IC50 is > 100 µM.

In the case of `CC1(C)CCC[C@]2(C)[C@@H](CC(=O)OCc3ccc(Cl)c(Cl)c3)[C@](C)(O)CC[C@@H]12` [Compound 19, 3,4-dichlorobenzyl 2-((1R,2R,4aS,8aS)-2-hydroxy-2,5,5,8a-tetramethyldecahydronaphthalen-1-yl)acetate], on rTRPV4, the “activity on rTRPV4 in words” value is “completely devoid of activity”, the half-inhibitory concentration (IC50) was > 100 µM and the Efficacy % is on record as <10%. Also, at hTRPV1, the Efficacy % is reported as 17.5 ± 2.7% and the IC50 is > 100 µM.

On to `CC1(C)CCC[C@]2(C)[C@@H](CC(=O)NCCc3ccccc3)[C@](C)(O)CC[C@@H]12` [Compound 10, 2-((1R,2R,4aS,8aS)-2-hydroxy-2,5,5,8a-tetramethyldecahydronaphthalen-1-yl)-N-phenethylacetamide], for which, on rTRPV4, the IC50 stood at 15.6 ± 0.3 µM and the Efficacy % is recorded as <10%.

As for `CC1(C)CCC[C@]2(C)[C@@H](CCOCc3cccc(Cl)c3)[C@](C)(O)CC[C@@H]12` [Compound 25, (1R,2R,4aS,8aS)-1-(2-((3-Chlorobenzyl)oxy)ethyl)-2,5,5,8a-tetramethyldecahydronaphthalen-2-ol], at rTRPV4, the “activity on rTRPV4 in words” value was “inactive”, the IC50 is > 100 µM and the Efficacy % is <10%. Besides, at hTRPV1, the “activity on hTRPV1 in words” value was “inactive” and the IC50 was > 100 µM.

`CC1(C)CCC[C@]2(C)[C@@H](CC(=O)Nc3cc(F)ccc3F)[C@](C)(O)CC[C@@H]12` [Compound 2, N-(2,5-difluorophenyl)-2-((1R,2R,4aS,8aS)-2-hydroxy-2,5,5,8a-tetramethyldecahydronaphthalen-1-yl)acetamide]: on rTRPV4, the IC50 was > 100 µM and the Efficacy % is <10%. Further, the IC50 at hTRPV1 was > 100 µM.

Take `CC1(C)CCC[C@]2(C)[C@@H](CC(=O)NCc3ccccc3)[C@](C)(O)CC[C@@H]12` [Compound 4, N-benzyl-2-((1R,2R,4aS,8aS)-2-hydroxy-2,5,5,8a-tetramethyldecahydronaphthalen-1-yl)acetamide]: on rTRPV4, the IC50 turned out to be 32 ± 0.8 µM. For the same compound, the Efficacy % at rTRPV4 is on record as <10%; at hTRPV1 it was 36.8 ± 0.2%.

As for `CC1(C)CCC[C@]2(C)[C@@H](CC(=O)NCCc3cccc(F)c3)[C@](C)(O)CC[C@@H]12` [Compound 13, N-(3-fluorophenethyl)-2-((1R,2R,4aS,8aS)-2-hydroxy-2,5,5,8a-tetramethyldecahydronaphthalen-1-yl)acetamide], the values for the 50% inhibitory concentration (IC50) on rTRPV4 and on hTRPV1 were 11.9 ± 0.4 µM and > 50 µM, respectively. Moreover, the Efficacy % is recorded as <10% on rTRPV4 and 20.8 ± 1.6% at hTRPV1.

As to `CC1(C)CCC[C@]2(C)[C@@H](CC(=O)NCc3ccc(Cl)cc3)[C@](C)(O)CC[C@@H]12` [Compound 5, N-(4-chlorobenzyl)-2-((1R,2R,4aS,8aS)-2-hydroxy-2,5,5,8a-tetramethyldecahydronaphthalen-1-yl)acetamide], on rTRPV4, the IC50 worked out at 7.7 ± 0.3 µM and the Efficacy % is reported as <10%. Also, the IC50 at hTRPV1 is > 100 µM.

Regarding `CC1(C)CCC[C@]2(C)[C@@H](CC(=O)NCCc3ccc(Cl)cc3)[C@](C)(O)CC[C@@H]12` [Compound 11, N-(4-chlorophenethyl)-2-((1R,2R,4aS,8aS)-2-hydroxy-2,5,5,8a-tetramethyldecahydronaphthalen-1-yl)acetamide], the IC50 on rTRPV4 is 7 ± 0.1 µM; on hTRPV1 it was > 100 µM. The Efficacy % on rTRPV4 is reported as <10%.

Take `CC1(C)CCC[C@]2(C)[C@@H](CC(=O)NCc3ccc(-c4ccccc4)cc3)[C@](C)(O)CC[C@@H]12` [Compound 15, N-((1,1′-biphenyl)-4-ylmethyl)-2-((1R,2R,4aS,8aS)-2-hydroxy-2,5,5,8a-tetramethyldecahydronaphthalen-1-yl)acetamide]: on rTRPV4, the “activity on rTRPV4 in words” value is “completely devoid of activity”, the IC50 was > 100 µM and the Efficacy % is <10%. Moreover, the IC50 on hTRPV1 is > 100 µM.

`CC1(C)CCC[C@]2(C)[C@@H](CC(=O)NCc3ccco3)[C@](C)(O)CC[C@@H]12` [Compound 14, N-(furan-2-ylmethyl)-2-((1R,2R,4aS,8aS)-2-hydroxy-2,5,5,8a-tetramethyldecahydronaphthalen-1-yl)acetamide]: on rTRPV4, the “activity on rTRPV4 in words” value is given as “very weak antagonist properties”, the IC50 was 53.5 ± 1.8 µM and the Efficacy % is <10%. On hTRPV1, the Efficacy % is 25.2 ± 2.0% and the IC50 is > 100 µM.

On to `CC1(C)CCC[C@]2(C)[C@@H](CC(=O)Nc3ccccc3)[C@](C)(O)CC[C@@H]12` [Compound 1, 2-((1R,2R,4aS,8aS)-2-Hydroxy-2,5,5,8a-tetramethyldecahydronaphthalen-1-yl)-N-phenylacetamide], for which the IC50 at rTRPV4 and on hTRPV1 was > 100 µM in each case. For the same compound, the figures for the Efficacy % on rTRPV4 and on hTRPV1 were <10% and 33.6 ± 0.8%, respectively.

With `CC(C)C[C@H](NC(=O)c1cc2ccccc2s1)C(=O)N1CCN(C(=O)[C@H](CO)NS(=O)(=O)c2ccc(Cl)cc2Cl)CC1` [GSK1016790A, N-((1S)-1-{[4-((2S)-2-{[(2,4-dichlorophenyl)sulfonyl]amino} -3-hydroxypropanoyl)-1-piperazinyl]carbonyl}-3-methylbutyl)-1-benzothiophene-2-carboxamide, reference compound], the concentration for a half-maximal effect (EC50) at rTRPV4 turned out to be 3.5 nM.

`CC1(C)CCC[C@]2(C)[C@H]3CC(=O)O[C@]3(C)CC[C@@H]12` [Scd, (+)-Sclareolide, reference compound]: on rTRPV4, the “activity on rTRPV4 in words” value is “unable to modulate either channel; also recorded: inactive”, the IC50 is > 100 µM and the Efficacy % is 11.3 ± 0.7%. Also, the concentration giving a half-maximal response (EC50) on rTRPV4 (setting [1]) is > 10000 nM. At hTRPV1, the “activity on hTRPV1 in words” value was “unable to modulate either channel”, the Efficacy % is given as 12.6 ± 0.5% and the 50% inhibitory concentration (IC50) is > 100 µM.

Turning to `CC1(C)CCC[C@]2(C)[C@@H](CC(=O)Nc3ccccc3-n3cccc3)[C@](C)(O)CC[C@@H]12` [Compound 3, N-(2-(1H-pyrrol-1-yl)phenyl)-2-((1R,2R,4aS,8aS)-2-hydroxy-2,5,5,8a-tetramethyldecahydronaphthalen-1-yl)acetamide], on rTRPV4, the “activity on rTRPV4 in words” value is “good rTRPV4 agonist”, the IC50 was found to be 6 ± 0.1 µM and the Efficacy % came to 14.6 ± 1.5%. For the same compound, the EC50 on rTRPV4 (setting [1]) was 1100 ± 1000 nM. In addition, the EC50 on hTRPV1 (activation, NA = not active (efficacy lower than 10%), read-out: Potency EC50) stood at 4.7 ± 0.4 µM. On hTRPV1, the Efficacy % came out at 32.0 ± 1.2% and the IC50 was > 100 µM.

Consider `COc1cccc(CNC(=O)C[C@@H]2[C@@]3(C)CCCC(C)(C)[C@@H]3CC[C@@]2(C)O)c1` [Compound 9, 2-((1R,2R,4aS,8aS)-2-hydroxy-2,5,5,8a-tetramethyldecahydronaphthalen-1-yl)-N-(3 methoxybenzyl)acetamide], for which, on rTRPV4, the IC50 worked out at 18.1 ± 0.2 µM and the Efficacy % is recorded as <10%. For the same compound, the IC50 at hTRPV1 is > 100 µM.

Turning to `COc1ccc(CNC(=O)C[C@@H]2[C@@]3(C)CCCC(C)(C)[C@@H]3CC[C@@]2(C)O)cc1` [Compound 8, 2-((1R,2R,4aS,8aS)-2-hydroxy-2,5,5,8a-tetramethyldecahydronaphthalen-1-yl)-N-(4-methoxybenzyl)acetamide], on rTRPV4, the IC50 is 29.7 ± 0.7 µM and the Efficacy % is on record as <10%. Besides, at hTRPV1, the Efficacy % came to 19.7 ± 1.1% and the IC50 is > 100 µM.

Source of the values: publication PMC7594054, “Design, Synthesis and In Vitro Experimental Validation of Novel TRPV4 Antagonists Inspired by Labdane Diterpenes” (Marine Drugs, 2020).
